In the experiment the target is T1, human GPBAR1 receptor (Homo sapiens, UniProt Q8TDU6).
T1 construct: expressed in transfected cells
T1 sequence (Q8TDU6 1-330): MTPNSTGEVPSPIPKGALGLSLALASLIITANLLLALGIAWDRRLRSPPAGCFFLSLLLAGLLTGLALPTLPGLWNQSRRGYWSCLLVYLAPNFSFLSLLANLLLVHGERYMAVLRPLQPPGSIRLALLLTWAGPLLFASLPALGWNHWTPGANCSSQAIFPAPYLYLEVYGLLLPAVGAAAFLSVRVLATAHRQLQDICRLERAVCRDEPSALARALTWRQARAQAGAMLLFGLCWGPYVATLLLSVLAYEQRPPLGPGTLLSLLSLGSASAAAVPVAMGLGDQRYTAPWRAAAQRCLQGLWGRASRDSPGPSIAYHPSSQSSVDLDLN
Nature of the experiment: functional cAMP assay in CHO-dhfr(minus) cells expressing human GPBAR1 receptors. In kind it is cell-based. The settings on record: cAMP increase (TR-FRET) in CHO-dhfr(minus) cells expressing human GPBAR1; compounds incubated 30 min at 30° C. As for the experimental part:
The final clone was verified by DNA sequence analysis. The plasmid was transfected into CHO cells deficient in dihydrofolate reductase activity (CHO-dhfr-) using Lipofectamine plus (Invitrogen). Clones were isolated in limited dilution conditions and identified by activities in the cAMP assay using lithocholic acid as agonist.
The growth medium was exchanged with Krebs Ringer Bicarbonate buffer with 1 mM IBMX and incubated at 30° C. for 30 mM. Compounds were added to a final assay volume of 100 μl and incubated for 30 min at 30° C. […] The time-resolved energy transfer is measured by a TRF reader (Evotec Technologies GmbH, Hamburg Germany), equipped with a ND:YAG laser as excitation source. The plate is measured twice with the excitation at 355 nm and at the emission with a delay of 100 ns and a gate of 100 ns, total exposure time 10s at 730 (bandwith 30 nm) or 645 nm (bandwith 75 nm), respectively.
EC50 values were determined using Activity Base analysis (ID Business Solution, Limited). […] Specificity for GPBAR1 was tested in non-transfected CHO cells in the same assay as above.
A general note: Cyclic AMP is a second messenger, typically raised through Gs and lowered through Gi signalling.

This is an account of results in patent US8309734B2 (Hoffmann-La Roche Inc., priority 2008, dated 2012).

A word on the EC50: it is the concentration at which the effect is half-maximal. Read a low EC50 as higher potency in that assay.

In the case of `O=C(c1cccnc1Oc1cc(Cl)ccc1Cl)N1CCCc2cc(F)c(F)cc21` [Example 38, [2-(2,5-Dichloro-phenoxy)-pyridin-3-yl]-(6,7-difluoro-3,4-dihydro-2H-quinolin-1-yl)-methanone], the half-maximal effective concentration (EC50) amounted to 57 nM.

In turn, `O=C(c1cccnc1Oc1cc(Cl)ccc1Cl)N1CCSc2ccccc21` [Example 39, [2-(2,5-Dichloro-phenoxy)-pyridin-3-yl]-(2,3-dihydro-benzo[1,4]thiazin-4-yl)-methanone] came in with a concentration for a half-maximal effect (EC50) of 29 nM.

Molecule `CN(C(=O)c1cccnc1Oc1cc(Cl)ccc1Cl)c1ccccc1Cl` [Example 40, N-(2-Chloro-phenyl)-2-(2,5-dichloro-phenoxy)-N-methyl-nicotinamide] showed an EC50 of 103 nM. This EC50 is about 3.6-fold higher than that of the molecule before.

As for `Cc1ccccc1N(C)C(=O)c1cccnc1Oc1cc(Cl)ccc1Cl` [Example 41, 2-(2,5-Dichloro-phenoxy)-N-methyl-N-o-tolyl-nicotinamide], a half-maximal response (EC50) required 33 nM.

Molecule `COc1ccccc1N(C)C(=O)c1cccnc1Oc1cc(Cl)ccc1Cl` [Example 42, 2-(2,5-Dichloro-phenoxy)-N-(2-methoxy-phenyl)-N-methyl-nicotinamide] yielded an EC50 of 20 nM.

Regarding `CN(C(=O)c1cccnc1Oc1cc(Cl)ccc1Cl)c1ccccc1-c1ccccc1` [Example 43, N-Biphenyl-2-yl-2-(2,5-dichloro-phenoxy)-N-methyl-nicotinamide], the half-maximal effective concentration (EC50) came out at 496 nM.

With `O=C(c1cccnc1Oc1cc(Cl)ccc1Cl)N1CCCc2cc(F)cc(F)c21` [Example 44, [2-(2,5-Dichloro-phenoxy)-pyridin-3-yl]-(6,8-difluoro-3,4-dihydro-2H-quinolin-1-yl)-methanone], a half-maximal response (EC50) required 44 nM.

Take `CCc1ccccc1N(C)C(=O)c1cccnc1Oc1cc(Cl)ccc1Cl` [Example 45, 2-(2,5-Dichloro-phenoxy)-N-(2-ethyl-phenyl)-N-methyl-nicotinamide]: the concentration for a half-maximal effect (EC50) is 92 nM.

With `CN(C(=O)c1cccnc1Oc1cc(Cl)ccc1Cl)c1ncccc1Cl` [Example 46, N-(3-Chloro-pyridin-2-yl)-2-(2,5-dichloro-phenoxy)-N-methyl-nicotinamide], the EC50 came out at 905 nM. This EC50 is about 9.8-fold higher than that of the molecule before.

In turn, `CN(C(=O)c1cccnc1Oc1cc(Cl)ccc1Cl)c1cnccc1Cl` [Example 47, N-(4-Chloro-pyridin-3-yl)-2-(2,5-dichloro-phenoxy)-N-methyl-nicotinamide] yielded an EC50 of 1250 nM.

With `COc1ncccc1N(C)C(=O)c1cccnc1Oc1cc(Cl)ccc1Cl` [Example 48, 2-(2,5-Dichloro-phenoxy)-N-(2-methoxy-pyridin-3-yl)-N-methyl-nicotinamide], the concentration giving a half-maximal response (EC50) came to 66 nM.

Regarding `Cc1c(Cl)cccc1N(C)C(=O)c1cccnc1Oc1cc(Cl)ccc1Cl` [Example 49, N-(3-Chloro-2-methyl-phenyl)-2-(2,5-dichloro-phenoxy)-N-methyl-nicotinamide], the concentration for a half-maximal effect (EC50) worked out at 173 nM.

The molecule `Cc1ccc(Cl)cc1N(C)C(=O)c1cccnc1Oc1cc(Cl)ccc1Cl` [Example 50, N-(5-Chloro-2-methyl-phenyl)-2-(2,5-dichloro-phenoxy)-N-methyl-nicotinamide] showed a half-maximal effective concentration (EC50) of 631 nM.

`Cc1cccc(Cl)c1N(C)C(=O)c1cccnc1Oc1cc(Cl)ccc1Cl` [Example 51, N-(2-Chloro-6-methyl-phenyl)-2-(2,5-dichloro-phenoxy)-N-methyl-nicotinamide] gave an EC50 of 59 nM.

Consider `Cc1cccc(C)c1N(C)C(=O)c1cccnc1Oc1cc(Cl)ccc1Cl` [Example 52, 2-(2,5-Dichloro-phenoxy)-N-(2,6-dimethyl-phenyl)-N-methyl-nicotinamide], for which the EC50 came to 116 nM. This EC50 is about 2-fold higher than that of the molecule before.

For `COc1cccc(C)c1N(C)C(=O)c1cccnc1Oc1cc(Cl)ccc1Cl` [Example 53, 2-(2,5-Dichloro-phenoxy)-N-(2-methoxy-6-methyl-phenyl)-N-methyl-nicotinamide], it took 321 nM to reach a half-maximal effect (EC50).

For the molecule `COc1ccc(F)cc1N(C)C(=O)c1cccnc1Oc1cc(Cl)ccc1Cl` [Example 54, 2-(2,5-Dichloro-phenoxy)-N-(5-fluoro-2-methoxy-phenyl)-N-methyl-nicotinamide], it took 35 nM to reach a half-maximal effect (EC50). Compared with the last molecule, the EC50 is about 9.2-fold lower.

The molecule `COc1ccc(Cl)cc1N(C)C(=O)c1cccnc1Oc1cc(Cl)ccc1Cl` [Example 55, N-(5-Chloro-2-methoxy-phenyl)-2-(2,5-dichloro-phenoxy)-N-methyl-nicotinamide] registered an EC50 of 641 nM.

In turn, `Cc1cc(Cl)ccc1N(C)C(=O)c1cccnc1Oc1cc(Cl)ccc1Cl` [Example 56, N-(4-Chloro-2-methyl-phenyl)-2-(2,5-dichloro-phenoxy)-N-methyl-nicotinamide] registered an EC50 of 1390 nM.

`Cc1cccc(N(C)C(=O)c2cccnc2Oc2cc(Cl)ccc2Cl)c1C` [Example 57, 2-(2,5-Dichloro-phenoxy)-N-(2,3-dimethyl-phenyl)-N-methyl-nicotinamide] gave an EC50 of 385 nM. This EC50 lies about 3.6-fold lower than the previous one.

Molecule `Cc1ccc(N(C)C(=O)c2cccnc2Oc2cc(Cl)ccc2Cl)c(C)c1` [Example 58, 2-(2,5-Dichloro-phenoxy)-N-(2,4-dimethyl-phenyl)-N-methyl-nicotinamide] displayed an EC50 of 758 nM.

The molecule `COc1ccc(C)cc1N(C)C(=O)c1cccnc1Oc1cc(Cl)ccc1Cl` [Example 59, 2-(2,5-Dichloro-phenoxy)-N-(2-methoxy-5-methyl-phenyl)-N-methyl-nicotinamide] displayed an EC50 of 1550 nM.

`COc1cccc(OC)c1N(C)C(=O)c1cccnc1Oc1cc(Cl)ccc1Cl` [Example 60, 2-(2,5-Dichloro-phenoxy)-N-(2,6-dimethoxy-phenyl)-N-methyl-nicotinamide] yielded an EC50 of 1550 nM.

Molecule `Cc1cc(Cl)ncc1N(C)C(=O)c1cccnc1Oc1cc(Cl)ccc1Cl` [Example 61, N-(6-Chloro-4-methyl-pyridin-3-yl)-2-(2,5-dichloro-phenoxy)-N-methyl-nicotinamide] yielded an EC50 of 1980 nM.

In turn, `CN(C(=O)c1cccnc1Oc1cc(Cl)ccc1Cl)c1ccccc1C#N` [Example 62, N-(2-Cyano-phenyl)-2-(2,5-dichloro-phenoxy)-N-methyl-nicotinamide] yielded an EC50 of 820 nM.

`CN(C(=O)c1cccnc1Oc1cc(Cl)ccc1Cl)c1ccccc1F` [Example 63, 2-(2,5-Dichloro-phenoxy)-N-(2-fluoro-phenyl)-N-methyl-nicotinamide] registered an EC50 of 170 nM.

`CN(C(=O)c1cccnc1Oc1cc(Cl)ccc1Cl)c1c(F)cccc1F` [Example 64, 2-(2,5-Dichloro-phenoxy)-N-(2,6-difluoro-phenyl)-N-methyl-nicotinamide] came in with an EC50 of 155 nM.

In turn, `CN(C(=O)c1cccnc1Oc1cc(Cl)ccc1Cl)c1ccccc1-n1cccc1` [Example 65, 2-(2,5-Dichloro-phenoxy)-N-methyl-N-(2-pyrrol-1-yl-phenyl)-nicotinamide] yielded an EC50 of 357 nM.

As to `CN(C(=O)c1cccnc1Oc1cc(Cl)ccc1Cl)c1ccc(F)cc1F` [Example 66, 2-(2,5-Dichloro-phenoxy)-N-(2,4-difluoro-phenyl)-N-methyl-nicotinamide], the midpoint of the response, the EC50, lay at 518 nM.

Molecule `CC1CCc2ccccc2N1C(=O)c1cccnc1Oc1cc(Cl)ccc1Cl` (stereo not drawn) [Example 67, [2-(2,5-Dichloro-phenoxy)-pyridin-3-yl]-(2-methyl-3,4-dihydro-2H-quinolin-1-yl)-methanone] gave a concentration giving a half-maximal response (EC50) of 1690 nM.

`Cc1cc(F)c2c(c1)CCCN2C(=O)c1cccnc1Oc1cc(Cl)ccc1Cl` [Example 68, [2-(2,5-Dichloro-phenoxy)-pyridin-3-yl]-(8-fluoro-6-methyl-3,4-dihydro-2H-quinolin-1-yl)-methanone] registered an EC50 of 837 nM.

Molecule `Cc1ccnc(Cl)c1N(C)C(=O)c1cccnc1Oc1cc(Cl)ccc1Cl` [Example 69, N-(2-Chloro-4-methyl-pyridin-3-yl)-2-(2,5-dichloro-phenoxy)-N-methyl-nicotinamide] yielded an EC50 of 566 nM.

`COc1cccc2c1N(C(=O)c1cccnc1Oc1cc(Cl)ccc1Cl)CCC2` [Example 70, [2-(2,5-Dichloro-phenoxy)-pyridin-3-yl]-(8-methoxy-3,4-dihydro-2H-quinolin-1-yl)-methanone] returned an EC50 of 561 nM.

As for `O=C(c1cccnc1Oc1cc(Cl)ccc1Cl)N1CCCc2cc(Cl)ccc21` [Example 71, (6-Chloro-3,4-dihydro-2H-quinolin-1-yl)-[2-(2,5-dichloro-phenoxy)-pyridin-3-yl]-methanone], the concentration giving a half-maximal response (EC50) is 436 nM.

`O=C(c1cccnc1Oc1cc(Cl)ccc1Cl)N1CCOc2ccc(F)cc21` [Example 72, [2-(2,5-Dichloro-phenoxy)-pyridin-3-yl]-(6-fluoro-2,3-dihydro-benzo[1,4]oxazin-4-yl)-methanone] came in with an EC50 of 163 nM. Against the preceding molecule, the EC50 is about 2.7-fold lower.

Regarding `O=C(c1cccnc1Oc1cc(Cl)ccc1Cl)N1CCOc2c(F)cc(F)cc21` [Example 73, [2-(2,5-Dichloro-phenoxy)-pyridin-3-yl]-(6,8-difluoro-2,3-dihydro-benzo[1,4]oxazin-4-yl)-methanone], the concentration for a half-maximal effect (EC50) came to 418 nM.
